Tested on: L1210 leukemia
Assay: NCI 3LE31, i.p.-implanted L1210 lymphoid leukemia
Type: in vivo, DBA/2 mice
Settings: for activity in i.p.-implanted lymphoid leukemia test (in words): 3LE31, reproducible T/C of 150% or higher is considered significant activity; for number of mice cured (surviving after thirty day test period): six mice
Method: The spectrum of antitumor activity of the compound of Example 1 was determined employing a number of standard National Cancer Institute (NCI) protocols. The antitumor activity was determined in vivo against several different tumors, employing various treatment schedules and routes of administration.
Samples of the test compounds of Examples 1-10 and a number of structurally-related control compounds were tested in accordance with National Cancer Institute test protocol 3LE31 (NCI Protocol 1.100, Cancer Chemotherapy Reports Part 3, Vol. 3, No. 2, September 1972) to determine the effects of the several compounds on i.p.-implanted L1210 leukemia (J. Nat'l. Cancer Inst. 13(5):1328, 1953). Each test involved implantation of the leukemia cells in six DBA/2 mice, one sex per experiment, the male mice weighing a minimum of 18 grams and the female mice weighing a minimum of 17 grams, and all of the test animals being within a three gram weight range. The test compound was administered by i.p. injections, in 0.1 ml. doses of diluted ascitic fluid (10^5 cells per dose), commencing one day after the tumor implant and continuing daily for nine days.
The test animals were weighed and survivors recorded on a regular basis during a thirty day test period. The ratio of survival time for the treated and control animals (T/C) was determined as a percentage.
The tests were carried out at varying dosage levels and with varying numbers of repetitions, depending upon the results obtained with each test compoud. […] A reproducible T/C of 150% or higher is considered significant activity.
The number of mice "cured", viz., those surviving from each animal test group after the thirty day test period, is indicated in parenthesis following the T/C percentage data in Table III below: […]

[1] = 200 mg/kg i.p. daily for nine days
[2] = Mus musculus, L1210, ip, 25 mg/kg i.p. daily for nine days, read-out: T/C % (survival time treated/control)
[3] = Mus musculus, L1210, ip, 50 mg/kg i.p. daily for nine days, read-out: T/C % (survival time treated/control)
[4] = Mus musculus, L1210, ip, 100 mg/kg i.p. daily for nine days, read-out: T/C % (survival time treated/control)
[5] = Mus musculus, L1210, ip, 200 mg/kg i.p. daily for nine days, read-out: T/C % (survival time treated/control)
[6] = 25 mg/kg i.p. daily for nine days
[7] = 50 mg/kg i.p. daily for nine days
[8] = 100 mg/kg i.p. daily for nine days
[9] = 400 mg/kg i.p. daily for nine days

## O=C(Nc1ccc(Cl)cc1)c1c(O)[nH]c(=S)[nH]c1=O [Control A]
[1]
  T/C % (survival time treated/control): Toxic
3LE31, upon further testing
  T/C: less than 125%
  activity in i.p.-implanted lymphoid leukemia test (in words): inactive
[2]
  response vs control in vivo at 25 mg/kg: 110%
[3]
  response vs control in vivo at 50 mg/kg: 121%
[4]
  response vs control in vivo at 100 mg/kg: 125%

## O=C(Nc1ccccc1)c1c(O)[nH]c(=O)[nH]c1=O [Control B]
[1]
  number of mice cured (surviving after thirty day test period): 2
  activity in i.p.-implanted lymphoid leukemia test (in words): exhibited significant activity
[2]
  response vs control in vivo at 25 mg/kg: 118%

## O=C(Nc1ccccc1)c1c(O)[nH]c(=O)[nH]c1=O [Control C]
  activity in i.p.-implanted lymphoid leukemia test (in words): exhibited significant activity
Mus musculus, L1210, ip, 400 mg/kg i.p. daily for nine days, read-out: T/C % (survival time treated/control)
  response vs control in vivo at 400 mg/kg: 233%

## Cc1ccccc1NC(=O)c1c(O)[nH]c(=O)[nH]c1=O [Control D]
[2]
  response vs control in vivo at 25 mg/kg: 108%
[3]
  response vs control in vivo at 50 mg/kg: 104%
[4]
  response vs control in vivo at 100 mg/kg: 106%
[5]
  response vs control in vivo at 200 mg/kg: 124%

## COc1ccc(NC(=O)c2c(O)[nH]c(=O)[nH]c2=O)cc1 [Control F]
[2]
  response vs control in vivo at 25 mg/kg: 109%
[3]
  response vs control in vivo at 50 mg/kg: 105%
[4]
  response vs control in vivo at 100 mg/kg: 105%
[5]
  response vs control in vivo at 200 mg/kg: 117%

## Cn1c(=S)[nH]c(O)c(C(=O)Nc2ccccc2)c1=O [Control G]
[1]
  T/C % (survival time treated/control): Toxic
[2]
  response vs control in vivo at 25 mg/kg: 94%
[3]
  response vs control in vivo at 50 mg/kg: 98%
[4]
  response vs control in vivo at 100 mg/kg: 87%

## Cn1c(=S)[nH]c(O)c(C(=O)Nc2ccccc2)c1=O [Control H]
[6]
  T/C % (survival time treated/control): Toxic
[7]
  T/C % (survival time treated/control): Toxic
[8]
  T/C % (survival time treated/control): Toxic
[1]
  T/C % (survival time treated/control): Toxic
Mus musculus, L1210, ip, 1.56 mg/kg i.p. daily for nine days, read-out: T/C % (survival time treated/control)
  response vs control in vivo at 1.56 mg/kg: 97%
Mus musculus, L1210, ip, 3.12 mg/kg i.p. daily for nine days, read-out: T/C % (survival time treated/control)
  response vs control in vivo at 3.12 mg/kg: 98%
Mus musculus, L1210, ip, 6.25 mg/kg i.p. daily for nine days, read-out: T/C % (survival time treated/control)
  response vs control in vivo at 6.25 mg/kg: 98%
Mus musculus, L1210, ip, 12.5 mg/kg i.p. daily for nine days, read-out: T/C % (survival time treated/control)
  response vs control in vivo at 12.5 mg/kg: 98%

## Cn1c(=S)[nH]c(O)c(C(=O)Nc2cccc([N+](=O)[O-])c2)c1=O [Control I]
[2]
  response vs control in vivo at 25 mg/kg: 102%
[3]
  response vs control in vivo at 50 mg/kg: 98%
[4]
  response vs control in vivo at 100 mg/kg: 102%
[5]
  response vs control in vivo at 200 mg/kg: 112%

## Cn1c(=S)[nH]c(O)c(C(=O)Nc2cccc([N+](=O)[O-])c2)c1=O [Control J]
[6]
  T/C % (survival time treated/control): 100%
[7]
  T/C % (survival time treated/control): 94%
[8]
  T/C % (survival time treated/control): 104%
[1]
  T/C % (survival time treated/control): 101%

## Cn1c(O)c(C(=O)Nc2ccccc2)c(=O)n(C)c1=S [Control K]
[1]
  T/C % (survival time treated/control): Toxic
[2]
  response vs control in vivo at 25 mg/kg: 107%
[3]
  response vs control in vivo at 50 mg/kg: 109%
[4]
  response vs control in vivo at 100 mg/kg: 121%

## Cn1c(O)c(C(=O)Nc2ccccc2)c(=O)n(C)c1=S [Control L]
[6]
  T/C % (survival time treated/control): 108%
[7]
  T/C % (survival time treated/control): Toxic
[8]
  T/C % (survival time treated/control): Toxic
[1]
  T/C % (survival time treated/control): Toxic

## Cn1c(O)c(C(=O)Nc2ccc(Cl)cc2)c(=O)n(C)c1=S [Control M]
[6]
  T/C % (survival time treated/control): Toxic
[7]
  T/C % (survival time treated/control): Toxic
[8]
  T/C % (survival time treated/control): Toxic
[1]
  T/C % (survival time treated/control): Toxic
Mus musculus, L1210, ip, 1.5 mg/kg i.p. daily for nine days, read-out: T/C % (survival time treated/control)
  response vs control in vivo at 1.5 mg/kg: 106%
Mus musculus, L1210, ip, 3 mg/kg i.p. daily for nine days, read-out: T/C % (survival time treated/control)
  response vs control in vivo at 3 mg/kg: 92%
Mus musculus, L1210, ip, 6 mg/kg i.p. daily for nine days, read-out: T/C % (survival time treated/control)
  response vs control in vivo at 6 mg/kg: 95%
Mus musculus, L1210, ip, 12 mg/kg i.p. daily for nine days, read-out: T/C % (survival time treated/control)
  response vs control in vivo at 12 mg/kg: 106%
Mus musculus, L1210, ip, .75 mg/kg i.p. daily for nine days, read-out: T/C % (survival time treated/control)
  response vs control in vivo at 0.75 mg/kg: 102%

## Cc1ccc(C)c(NC(=O)c2c(O)n(C)c(=S)n(C)c2=O)c1 [Control N]
[7]
  T/C % (survival time treated/control): Toxic
[8]
  T/C % (survival time treated/control): Toxic
[1]
  T/C % (survival time treated/control): Toxic
[2]
  response vs control in vivo at 25 mg/kg: 103%

## O=C(Nc1ccccc1)c1c(O)[nH]c(=S)n(-c2ccccc2)c1=O [Control O]
[1]
  T/C % (survival time treated/control): Toxic
[2]
  response vs control in vivo at 25 mg/kg: 104%
[3]
  response vs control in vivo at 50 mg/kg: 115%
[4]
  response vs control in vivo at 100 mg/kg: 123%

## O=C(Nc1ccccc1)c1c(O)[nH]c(=S)n(-c2ccccc2)c1=O [Control P]
[6]
  T/C % (survival time treated/control): 110%
[7]
  T/C % (survival time treated/control): 116%
[8]
  T/C % (survival time treated/control): Toxic
[1]
  T/C % (survival time treated/control): Toxic

## O=C(Nc1ccc(Cl)cc1)c1c(O)[nH]c(=S)n(-c2ccccc2)c1=O [Control Q]
[7]
  T/C % (survival time treated/control): 92%
[8]
  T/C % (survival time treated/control): 112%
[1]
  T/C % (survival time treated/control): Toxic
[2]
  response vs control in vivo at 25 mg/kg: 100%

## O=C(Nc1ccc(Cl)cc1)c1c(O)[nH]c(=S)n(-c2ccccc2)c1=O [Control R]
[6]
  T/C % (survival time treated/control): 106%
[7]
  T/C % (survival time treated/control): 121%
[8]
  T/C % (survival time treated/control): 88%
[1]
  T/C % (survival time treated/control): Toxic

## O=C(Nc1ccccc1)c1c(O)n(-c2ccccc2)c(=S)n(-c2ccccc2)c1=O [Control S]
[2]
  response vs control in vivo at 25 mg/kg: 97%
[3]
  response vs control in vivo at 50 mg/kg: 100%

## O=C(Nc1ccccc1)c1c(O)n(-c2ccccc2)c(=S)n(-c2ccccc2)c1=O [Control T]
[6]
  T/C % (survival time treated/control): 102%
[7]
  T/C % (survival time treated/control): 109%
[9]
  T/C % (survival time treated/control): 109%

## CC(C)c1cccc(C(C)C)c1NC(=O)c1c(O)n(-c2ccccc2)c(=S)n(-c2ccccc2)c1=O [Control U]
[2]
  response vs control in vivo at 25 mg/kg: 101%
[3]
  response vs control in vivo at 50 mg/kg: 100%
[4]
  response vs control in vivo at 100 mg/kg: 104%
[5]
  response vs control in vivo at 200 mg/kg: 112%

## COC(=O)c1ccccc1NC(=O)c1c(O)n(-c2ccccc2)c(=S)n(-c2ccccc2)c1=O [Control V]
[8]
  T/C % (survival time treated/control): Toxic
[1]
  T/C % (survival time treated/control): Toxic
[2]
  response vs control in vivo at 25 mg/kg: 102%
[3]
  response vs control in vivo at 50 mg/kg: 106%

## O=c1[nH]c(=S)[nH]c(O)c1C(=S)Nc1ccccc1 [Control W]
[2]
  response vs control in vivo at 25 mg/kg: 101%
[3]
  response vs control in vivo at 50 mg/kg: 102%
[4]
  response vs control in vivo at 100 mg/kg: 94%
[5]
  response vs control in vivo at 200 mg/kg: 103%

## O=c1[nH]c(O)c(C(=S)Nc2ccccc2)c(=O)[nH]1 [Control X]
[2]
  response vs control in vivo at 25 mg/kg: 105%
[3]
  response vs control in vivo at 50 mg/kg: 98%
[4]
  response vs control in vivo at 100 mg/kg: 97%
[5]
  response vs control in vivo at 200 mg/kg: 104%

## O=C(Nc1ccccc1Cl)c1c(O)[nH]c(=S)[nH]c1=O [Example 2, N-(2-chlorophenyl)-1,2,3,4-tetrahydro-6-hydroxy-4-oxo-2-thioxo-5-pyrimidinecarboxamide]
[1]
  number of mice cured (surviving after thirty day test period): 1
[9]
  T/C % (survival time treated/control): Toxic
[2]
  response vs control in vivo at 25 mg/kg: 106%
[3]
  response vs control in vivo at 50 mg/kg: 118%
[4]
  response vs control in vivo at 100 mg/kg: 127%

## Cc1ccccc1NC(=O)c1c(O)[nH]c(=S)[nH]c1=O [Example 3, 1,2,3,4-tetrahydro-6-hydroxy-N-(2-methylphenyl)-4-oxo-2-thioxo-5-pyrimidine-carboxamide]
[1]
  T/C % (survival time treated/control): Toxic
[2]
  response vs control in vivo at 25 mg/kg: 108%
[3]
  response vs control in vivo at 50 mg/kg: 112%

## O=C(Nc1cccc(F)c1)c1c(O)[nH]c(=S)[nH]c1=O [Example 4, N-(3-fluorophenyl)-1,2,3,4-tetrahydro-6-hydroxy-4-oxo-2-thioxo-5-pyrmidinecarboxamide]
[2]
  response vs control in vivo at 25 mg/kg: 114%
[3]
  response vs control in vivo at 50 mg/kg: 114%
[4]
  response vs control in vivo at 100 mg/kg: 128%
[5]
  response vs control in vivo at 200 mg/kg: 155%

## O=C(Nc1ccc(F)cc1)c1c(O)[nH]c(=S)[nH]c1=O [Example 5, N-(4-fluorophenyl)-1,2,3,4-tetrahydro-6-hydroxy-4-oxo-2-thioxo-5-pyrimidinecarboxamide]
[1]
  T/C % (survival time treated/control): Toxic
  activity in i.p.-implanted lymphoid leukemia test (in words): With the exception of the compound of Example 5, the materials of the other examples similarly exhibited significant activity
[2]
  response vs control in vivo at 25 mg/kg: 111%
[3]
  response vs control in vivo at 50 mg/kg: 112%
[4]
  response vs control in vivo at 100 mg/kg: 133%

From patent US4634707A, “5-Pyrimidinecarboxamides and treatment of leukemia and tumors therewith” (Uniroyal Chemical Company, priority 1984, dated 1987)
